Laboratory results: patent US12648937B2, “Composition containing levamlodipine besylate hydrate and its preparation method” (SHIHUIDA PHARMACEUTICALS GROUP (JILIN) LTD., priority 2019, dated 2026)

Columns and labels:
[1] = Material properties (granulation, stickiness, sieving) of levamlodipine besylate hydrate composition granules; format: physicochemical; settings: granules of given crystalline water content, finishing of granulation, 10 mesh
Excerpt: In order to meet the requirements for the production of solid-form preparation plain tablets, the preparation is a direct compression method. As such, the granules of the active pharmaceutical ingredient need to pass through a sieve below 10 mesh to ensure content uniformity. […] A hydrate composition with a crystalline water content of less than 5.8% can meet the requirements of the finishing of granulation. […] The crystalline water content of the hydrate being controlled below 5.5% can better meet the requirements of making pharmaceutical preparations. 1. Production of Samples: the method of Example 2 is used to prepare samples with corresponding water content.

[2] = Acute toxicity (LD50, Bliss method) of levamlodipine besylate hydrate composition tablets; settings: Kunming, mouse, in vivo
Procedure: In this experiment the tablet formulation is the one of Example 5, in which the crystalline water content of the levamlodipine besylate hydrate composition is 5.3%.
In this experiment, the LD50 is measured by two administration routes. […] Animals: Kunming mice, half male and half […], each weighing 18-28 g, 10 animals in each group, fasted for 16 hours before use. Dosage: Oral administration: […], 0.6580 (g/kg), intraperitoneal administration: 0.7743, 0.6582, 0.5594, 0.4755, 0.4042 (g/kg) dose gradient: 0.85. Route of administration: experimental methods of oral administration and intraperitoneal administration, 100 mice are selected, fasted for 16 hours, and randomly divided into 10 groups. Oral administration to the first 5 groups, and the dose being 0.35 ml/10 g; intraperitoneal administration to the latter 5 groups, and the dose being 0.2 ml/10 g.

[3] = Thermal stability of hydrate compositions, 45° C. oven for 5 days, impurities by HPLC; format: physicochemical; settings: for Impurity Content, impurities before heating of sample: 0 days; for Impurity Content, sample placed in 45° C. oven for 5 days: amber glass bottles
Procedure: Using the method of Example 2 of the present invention, compositions with different crystalline water content can be prepared and used as samples to test thermal stability.
The samples are placed in amber glass bottles, placed in an oven, and the temperature is adjusted to 45° C., and the relevant substances are tested after settled for 5 days.
The test method is as follows: The chromatographic conditions and system applicability test: Use octadecylsilane-bonded silica gel as the filler; methanol-0.03 mol/L potassium dihydrogen phosphate solution (75:25) as the mobile phase, the detection wavelength is 238 nm, the number of theoretical plates should be no less than 500 calculated in levamlodipine.
Preparation of the Test Solution: Take about 17 mg of this product, precisely weigh it, put it in a 100 ml volumetric flask, add a mobile phase to dissolve and dilute to the mark, shake well, precisely measure 5 ml, put it in a 25 ml volumetric flask, add a mobile phase to the mark, shake well to obtain the solution.
Determination Method: Precisely measure 10 μl of the reference solution and the test solution, inject into the liquid chromatography machine, record the chromatogram, measure the peak area, and calculate by the external standard method.

## CCOC(=O)C1=C(COCCN)NC(C)=C(C(=O)OC)[C@@H]1c1ccccc1Cl.O=S(=O)(O)c1ccccc1 [5.5%]
[1]
  Sieving Performance: have no stickiness
  Stickiness: no stickiness

## CCOC(=O)C1=C(COCCN)NC(C)=C(C(=O)OC)[C@@H]1c1ccccc1Cl.O=S(=O)(O)c1ccccc1 [5.8%]
[1]
  Sieving Performance: have essentially no
  Stickiness: essentially no

## CCOC(=O)C1=C(COCCN)NC(C)=C(C(=O)OC)[C@@H]1c1ccccc1Cl.O=S(=O)(O)c1ccccc1 [5.9%]
[1]
  Sieving Performance: are less sticky

## CCOC(=O)C1=C(COCCN)NC(C)=C(C(=O)OC)[C@@H]1c1ccccc1Cl.O=S(=O)(O)c1ccccc1 [6.0%]
[1]
  Sieving Performance: stick together even

## CCOC(=O)C1=C(COCCN)NC(C)=C(C(=O)OC)[C@@H]1c1ccccc1Cl.O=S(=O)(O)c1ccccc1 [(4 s)-2-[(2-aminoethoxy)methyl]-4-(2-chlorophenyl)-6-methyl-1,4-dihydro-3,5-pyridinedicarboxylic acid-3-ethyl ester, 5-methyl ester benzenesulfonate hydrate]
[2]; ip
  LD50 at 7 days: 16 ± 1.38 mg/kg
[2]; po
  LD50 at 7 days: 24.9 ± 1.75 mg/kg

## CCOC(=O)C1=C(COCCN)NC(C)=C(C(=O)OC)[C@@H]1c1ccccc1Cl.O=S(=O)(O)c1ccccc1 [Sample 1]
[3]
  Impurity Content, impurities before heating of sample: None
[3]; 45° C. oven, 5 days
  change in the appearance: no obvious change
  Impurity Content, sample placed in 45° C. oven for 5 days: 0.07%

## CCOC(=O)C1=C(COCCN)NC(C)=C(C(=O)OC)[C@@H]1c1ccccc1Cl.O=S(=O)(O)c1ccccc1 [Sample 2]
[3]
  Impurity Content, impurities before heating of sample: None
[3]; 45° C. oven, 5 days
  Impurity Content, sample placed in 45° C. oven for 5 days: None

## CCOC(=O)C1=C(COCCN)NC(C)=C(C(=O)OC)[C@@H]1c1ccccc1Cl.O=S(=O)(O)c1ccccc1 [Sample 3]
[3]
  Impurity Content, impurities before heating of sample: None
[3]; 45° C. oven, 5 days
  Impurity Content, sample placed in 45° C. oven for 5 days: None
